For one data set, the system named is A431 line. Kind of data set: MTT antiproliferative test, A431. Format: cell-based, human. As to conditions: A-431, read-out: IC50, inhibition of proliferation. The procedure: (§1) The lines MDAMB-435 and A431 are seeded at a density of 3000 cells per well in 96-well plates. After 24 hours, compounds 4.2a and 5.6d resuspended in 100% DMSO are added at concentrations of 0-0.001-0.010-0.1-1-10-50 μM for a final constant amount of DMSO of 0.3%. The cultures are maintained for a further 72 hours and an MTT colorimetric test is then performed. 100 μl of a solution of MTT at 5 mg/ml in PBS are added to the culture medium, which is left to incubate for 3 hours. The culture medium is removed and the cells are lyzed by adding 100 μL of a 4 mM HCl solvent, 0.1% Nondet P-40 (NP40) in isopropanol. The yellow tetrazolium MTT salt (3-(4,5-dimethylthiazol-2-yl)-2,5-diphenyl tetrazolium bromide), when it is reduced by the mitochondrial succinate dehydrogenase of active live cells, forms a blue-violet formazan product. The medium then changes from yellow to blue-violet. The intensity of this coloration at 590 nm is proportional to the number of live cells present during the test and gives an indication of the metabolic activity of these cells.
(§2) Table 1 gives the concentration values for 50% inhibition of proliferation (IC50) for compounds 4.2a and 5.6d on lines derived from bowel cancer (CaCo2), skin cancer (A431, MDAMB-435, B16F10), breast cancer (MDAMB-431), […] (HuH7), prostate cancer (DU145) and brain cancer (SNB75, Gli4, Gli7).
(Tetrazolium assays rely on reduction of a dye to a coloured formazan, in cell work by metabolically active cells.)

For another data set, the system named is MDAMB-231. Nature of the data set: MTT antiproliferative test, MDAMB-231. Format: cell-based. The conditions noted are these: Homo sapiens, MDA-MB-231, read-out: IC50, inhibition of proliferation. On the procedure: as §1, §2
The test system of another data set is HuH7. Nature of the data set: MTT antiproliferative test, HuH7. The conditions noted are these: Homo sapiens, Huh-7, read-out: IC50, inhibition of proliferation. Format: cell-based. On the procedure:
as §1, §2

The test system of the next data set is CaCo2. Kind of data set: MTT antiproliferative test, CaCo2. Format: cell-based. As to conditions: Homo sapiens, Caco-2, read-out: IC50, inhibition of proliferation. On the procedure: as §1, §2
In another data set the test system is DU145. Kind of data set: MTT antiproliferative test, DU145. Type of data set: cell-based. As to conditions: Homo sapiens, DU-145, read-out: IC50, inhibition of proliferation. The procedure: as §1, §2
The test system of a further data set is C6 glioblastoma line. Nature of the data set: MTT antiproliferative test, C6. Type of data set: cell-based. As to conditions: Rattus norvegicus, read-out: IC50, inhibition of proliferation. The procedure:
(§3) Several cancer cell lines were used for the in vivo or in vitro biological tests: • SNB75 is a human glioblastoma line derived from a primary culture, i.e. derived from a primary malignant cancer tumor. It forms part of the panel of 59 cancer lines referenced by the NCI. Its Cosmic reference number published by the Welcome Trust Sanger Institute is 905982. This line was supplied by a person (M.D. Ph.D of the department of “Radiation Oncology”, Stanford University Medical Center). It was cultured in Ham's F-12 and DMEM (1/1) supplemented with 10% fetal bovine serum. The experiments were performed with cells in the exponential growth phase. • Gli4 (or Gli4F11) and Gli7 are cultures of cancer strain cells derived from human glioblastomas (primary cultures). These lines are CD133^+, CD15^+ which are multipotent and tumorigenic in animals. They were established by J. P. Hugnot (INM INSERM U-1051 Eq. 4), and described in Guichet, P. O. et al, Glia 2013, 61(2), 225-239; • C6 is a rat glioblastoma line. It is referenced in the ATCC under the reference CCL-107. • MDAMB-435 is a melanoma line derived from a mammary melanoma. It forms part of the panel of 59 cancer lines referenced by the NCI. It is referenced at the ATCC under the reference HTB-129. It was cultured in Ham's F-12 and DMEM (1/1) supplemented with 10% fetal bovine serum. […]

For the next data set, the system named is SNB75 glioblastoma line. Kind of data set: MTT antiproliferative test, SNB75. Format: cell-based. As to conditions: Homo sapiens, SNB-75, read-out: IC50, inhibition of proliferation. The procedure:
as §3

The test system of data set [1] is epidermoid cancer line A431. Nature of the data set: Boyden chamber migration test, A431. Type of data set: cell-based, human. The conditions noted are these: for Ki: 24 hours, read-out: Inhibition constant Ki, migration. On the procedure:
The effects of compounds 3.48a, 4.2a and 5.6d on the migration of cancer cells (human glioblastoma line SNB75 or primary culture of human glioblastoma Gli4F1, on the one hand, and MDAMB 435 and A431 on the other hand), were determined by performing a standard migration test in a Boyden chamber (treatment of the cells for 24 hours).
For this test, the compounds were dissolved in vitro and used in culture in 0.3% of DMSO. The interior of the inserts was covered with the extracellular matrix protein studied (laminin-1, vitronectin or fibronectin). The cells pretreated at various concentrations and untreated (controls) were deposited in the inserts covered with said protein at a rate of 50 000 cells/500 μl/insert in a medium containing 0.1% of BSA (bovine serum albumin).
500 μl of medium containing 10% fetal calf serum were then placed in each well of a Companion plate so as to allow the formation of a chemotactic gradient across the porous membrane. After 24 hours of migration in the incubator at 37° C., the supernatent was removed and the inserts rinsed with PBS on each face. The cells were counted with a microscope (Zeiss Axiophot, magnification ×200). This gives a percentage of migration relative to the untreated cells.
Table 2 below gives, for compound 3.48a, the values for the inhibition constants (Ki) for the migration of a human GBM line (SNB75), of GBM stem cell lines (Gli4, Gli7) and of a breast cancer line MDAMB231, in a Boyden chamber, on various extracellular matrix protein supports. Tables 3 and 4 below give, for compounds 4.2a and 5.6d, the values of the inhibition constants (Ki) for the migration of a melanoma line (MDAMB-435) or of an epidermoid cancer line (A431), in a Boyden chamber, on various extracellular matrix protein supports. The inhibitory effect depends on the line and the stem cells used, but also on the extracellular matrix protein support used.

The test system of a further data set is B16F10. Kind of data set: MTT antiproliferative test, B16F10. Format: cell-based. As to conditions: Mus musculus, B16-F10, read-out: IC50, inhibition of proliferation. On the procedure:
as §1, §2

A further data set has as its system Gli7. Nature of the data set: MTT antiproliferative test, Gli7. Format: cell-based. The conditions noted are these: Homo sapiens, read-out: IC50, inhibition of proliferation. On the procedure: as §3
In another data set the test system is GLi4. Kind of data set: MTT antiproliferative test, Gli4. Type of data set: cell-based. The conditions noted are these: Homo sapiens, read-out: IC50, inhibition of proliferation. The procedure: as §3
The test system of a further data set is MDAMB-435 melanoma line. Nature of the data set: MTT antiproliferative test, MDAMB-435. Format: cell-based. As to conditions: Homo sapiens, MDA-MB-435, 72 hours, read-out: IC50, inhibition of proliferation. On the procedure:
as §1, §2

For another data set, the system named is SNB75 cells. Nature of the data set: SNB75 subcutaneous model. Format: in vivo, mice. The procedure:
Nude female mice 4-5 weeks old with an average weight of […], supplied by the R. Janvier breeding center, were used. The mice were kept in a pathogen-free environment and with food and water present ad libitum. The experiments were commenced after one week of acclimatizing the mice to their new environment.
A suspension of 5×10^6 SNB75 cells in 100 μl of sterile PBS (phosphate-buffered saline, provided by Fisher) was injected into each mouse (subcutaneous administration without anesthesia). Once the mice presented tumors with volumes of between […], groups were formed so that each of them contained an equivalent number of large, medium and small tumors. The protocol was conducted with five groups of seven mice. The five groups of mice were treated using one of the five formulations described below:
Group A: Treatment by injection of 100 μl of NaCl (control N° 1).
Group B: Treatment with compound 3.48a at a rate of 10 mg/kg with volumes of 100 to 150 μl of formulation 2 according to the weight of the mice.
Group C: Treatment with compound 3.48a at a rate of 5 mg/kg with volumes of 100 to 150 μl of formulation 2 according to the weight of the mice.
Group D: Treatment with temozolomide at a rate of 20 mg/kg with volumes of 100 to 150 μl according to the weight of the mice. Temozolomide is a comparative anticancer active principle sold under the name Temodal by the laboratory Schering Plough. It is indicated for treating glioblastoma multiforme.
Group E: Treatment by injection of 100 to 150 μl according to the weight of the mice of formulation 2 not containing compound 3.48a (control N° 2).
Each batch was treated by intravenous injection into the caudal vein of 100 to 150 μl of solution (precision syringe and G25X1 needle ultrafine wall, VWR). Three injections per week for four weeks were performed. The mice were weighed at each injection. The sizes of the tumors were measured twice a week for a period of four weeks. The mice were sacrificed after four weeks and the tumors and organs (liver, kidney, spleen, brain, intestine, heart, muscles) were removed. A histological analysis was performed on these organs.

Where two headings read alike, the source gives them in different places.

We go through two compounds from patent US20150376216A1, “SUGAR-ANALOG PHOSPHORUS-CONTAINING HETEROCYCLES HAVING AN ANTI-METASTATIC ACTIVITY” (CENTRE NATIONAL DE LA RECHERCHE SCIENTIRIQUE, priority 2013, published 2015).

Consider `CC(=O)N[C@@H]1[C@H]2OC(C)(C)O[C@H]2[C@@H]([C@H]2COC(C)(C)O2)O[P@@]1(=O)c1ccccc1` [Compound 5.6d], for which the IC50 is 100 nM in the data set with A431 line (A431 line (human epidermoid cancer)); 130 nM with A431 line (Homo sapiens, A431, 72 hours, MTT); 23200 nM in the data set on MDAMB-231; 22000 nM in the data set with HuH7; 36000 nM in the data set on CaCo2; 31200 nM in the data set with DU145. Also, the IC50 with C6 glioblastoma line is 650 nM; with SNB75 glioblastoma line, 650 nM; in data set [1] (Homo sapiens, A-431, on fibronectin or vitronectin, read-out: Concentration for a 50% decrease in migration of the cancer cells) it was 10 to 100 nM; in the data set on B16F10 it was 14900 nM; with Gli7, 500 nM; with GLi4, 540 nM. For the same compound, the IC50 with MDAMB-435 melanoma line amounted to 9610 nM. Moreover, the values for the Ki in data set [1] (support Fibronectin), in data set [1] (support Laminin) and in data set [1] (support Vitronectin) were 8 nM, 13 nM and 20 nM, respectively.
As to `Cn1nnc2c(C(N)=O)ncn2c1=O` [temozolomide, reference compound], the Weight loss result with SNB75 cells (20 mg/kg i.v. (group D), remaining four mice) is reported as “substantial weight losses”. The Mortality result with SNB75 cells (20 mg/kg i.v. (group D), seven mice) is recorded as “three of the seven mice died after the third injection”. Further, in the data set on SNB75 cells (dose of 40 mg/kg), the “Lethality at higher dose” value was “leads to the death of the mice before the end of the experimentation period”.
